Results taken from patent US9181290B2, “Inhibition of biofilm formation by 1,2,3,4,6-penta-O-galloyl-D-glucopyranose” (CHANG GUNG UNIVERSITY, priority 2011, dated 2015).

Experiments:
S. carnosus TM300 = test: Growth (A578) and biofilm (A595) in polystyrene plates; format: cell-based; conditions: 12.5 μM β-PGG, 6 hr
Description: (§1) In addition to the above S. aureus strains, S. epidermidis ATCC 35547 and S. epidermidis RP62A (ATCC 35984) were also studied for comparison.
(§2) An overnight bacterial culture was 200-fold diluted with TSBg, and a 200 μL aliquot of the diluted culture was seeded into each well of 96-well polystyrene microtiter plates and incubated at 37° C. for a designated period of time. Cell growth was determined by measuring the absorbance at 578 nm (A578) with a microtiter plate reader (SpectraMax 340, Molecular Devices). After washing with PBS twice to remove suspended cells, the wells were stained with 0.1% (w/v) crystal violet in 10% ethanol and then treated with 30% acetic acid in dH2O, followed by detecting the absorbance at 595 nm (A595) with the microtiter plate reader to quantify the amount of biofilm formed on polystyrene surface.

[1] = tested on: clinical strains SA289, SA44, SA435 and SA703; test: Biofilm formation by four less sensitive clinical strains at 50 μM (data not shown); format: cell-based, Staphylococcus aureus; conditions: across the four clinical strains
Description: as §2

[2] = tested on: S. epidermidis RP62A (ATCC 35984); test: Growth (A578) and biofilm (A595) in polystyrene plates; format: cell-based, Staphylococcus epidermidis
Description: as §1, §2

[3] = tested on: S. aureus clinical strain SA288 (MSSA); test: as above; format: cell-based, Staphylococcus aureus; conditions: 12.5 μM β-PGG, 6 hr
Description: as §2

[4] = tested on: S. aureus clinical strain SA486 (MRSA); test: as above; format: cell-based, Staphylococcus aureus; conditions: 12.5 μM β-PGG, 6 hr
Description: as §2

[5] = tested on: S. aureus clinical strain SAChu (MRSA); test: as above; format: cell-based, Staphylococcus aureus; conditions: 12.5 μM β-PGG, 6 hr
Description: as §2

[6] = tested on: S. aureus clinical strain SA41 (MSSA); test: as above; format: cell-based, Staphylococcus aureus; conditions: 12.5 μM β-PGG, 6 hr
Description: as §2

[7] = tested on: S. aureus clinical strain SA44 (MRSA); test: as above; format: cell-based, Staphylococcus aureus; conditions: 12.5 μM β-PGG, 6 hr
Description: as §2

[8] = tested on: S. aureus clinical strain SA33 (MSSA); test: as above; format: cell-based, Staphylococcus aureus; conditions: 12.5 μM β-PGG, 6 hr
Description: as §2

[9] = tested on: S. aureus clinical strain SA130 (MRSA); test: as above; format: cell-based, Staphylococcus aureus; conditions: 12.5 μM β-PGG, 6 hr
Description: as §2

[10] = tested on: S. aureus clinical strain SA285 (MSSA); test: as above; format: cell-based, Staphylococcus aureus; conditions: 12.5 μM β-PGG, 6 hr
Description: as §2

[11] = tested on: S. aureus clinical strain SA703 (MRSA); test: as above; format: cell-based, Staphylococcus aureus; conditions: 12.5 μM β-PGG, 6 hr
Description: as §2

[12] = tested on: S. aureus clinical strain SA435 (MRSA); test: as above; format: cell-based, Staphylococcus aureus; conditions: 12.5 μM β-PGG, 6 hr
Description: as §2

[13] = tested on: S. aureus clinical strain SA289 (MSSA); test: as above; format: cell-based, Staphylococcus aureus; conditions: 12.5 μM β-PGG, 6 hr
Description: as §2

[14] = tested on: S. aureus clinical strain SA13 (MSSA); test: as above; format: cell-based, Staphylococcus aureus; conditions: 12.5 μM β-PGG, 6 hr
Description: as §2

In the case of O=C(OC[C@H]1O[C@@H](OC(=O)c2cc(O)c(O)c(O)c2)[C@H](OC(=O)c2cc(O)c(O)c(O)c2)[C@@H](OC(=O)c2cc(O)c(O)c(O)c2)[C@@H]1OC(=O)c1cc(O)c(O)c(O)c1)c1cc(O)c(O)c(O)c1 [β-PGG, 1,2,3,4,6-penta-O-galloyl-β-D-glucopyranose], the “Biofilm (A595)” value (S. carnosus TM300; 0 μM: 0.12 ± 0.01, non-biofilm negative control strain) is reported as 0.10 ± 0.01, the “Growth (A578)” value (S. carnosus TM300; 0 μM: 0.69 ± 0.02) is reported as 0.70 ± 0.01 and the “reduction of biofilm formation” value [1] is reported as 83-97%. For the same molecule, the “reduction of biofilm formation” value ([2]; 12.5 μM) was 35%, the “Growth (A578)” value ([2]; 12.5 μM β-PGG, 6 hr, 0 μM: 0.57 ± 0.09) was 0.56 ± 0.09 and the “Biofilm (A595)” value ([2]; 12.5 μM β-PGG, 6 hr, 0 μM: 6.43 ± 0.04) was 4.18 ± 0.54. The “Growth (A578)” value ([3]; 0 μM: 0.55 ± 0.01) was 0.50 ± 0.01, the “Biofilm (A595)” value ([3]; 0 μM: 0.83 ± 0.02) was 0.10 ± 0.01 and the “Growth (A578)” value ([4]; 0 μM: 0.76 ± 0.08) was 0.65 ± 0.02. The “Biofilm (A595)” value ([4]; 0 μM: 1.94 ± 0.19) was 0.26 ± 0.07, the “Growth (A578)” value ([5]; 0 μM: 0.56 ± 0.02) was 0.52 ± 0.04 and the “Biofilm (A595)” value ([5]; 0 μM: 8.06 ± 0.10) was 0.77 ± 0.11. The “Growth (A578)” value ([6]; 0 μM: 0.65 ± 0.02) was 0.61 ± 0.05, the “Biofilm (A595)” value ([6]; 0 μM: 1.67 ± 0.27) was 0.36 ± 0.05 and the “Growth (A578)” value ([7]; 0 μM: 0.66 ± 0.08) was 0.64 ± 0.04. For the same molecule, the “Biofilm (A595)” value ([7]; 0 μM: 1.33 ± 0.01) was 0.46 ± 0.01, the “Growth (A578)” value ([8]; 0 μM: 0.79 ± 0.01) was 0.79 ± 0.04 and the “Biofilm (A595)” value ([8]; 0 μM: 0.80 ± 0.07) was 0.13 ± 0.03. For the same molecule, the “Growth (A578)” value ([9]; 0 μM: 0.61 ± 0.12) was 0.62 ± 0.17, the “Biofilm (A595)” value ([9]; 0 μM: 3.05 ± 0.10) was 0.32 ± 0.04 and the “Growth (A578)” value ([10]; 0 μM: 0.56 ± 0.09) was 0.46 ± 0.03. The “Biofilm (A595)” value ([10]; 0 μM: 0.86 ± 0.09) was 0.16 ± 0.02, the “Growth (A578)” value ([11]; 0 μM: 0.74 ± 0.10) was 0.70 ± 0.07 and the “Biofilm (A595)” value ([11]; 0 μM: 2.33 ± 0.02) was 0.88 ± 0.07. The “Growth (A578)” value ([12]; 0 μM: 0.64 ± 0.10) was 0.67 ± 0.09, the “Biofilm (A595)” value ([12]; 0 μM: 0.97 ± 0.09) was 0.46 ± 0.06 and the “Growth (A578)” value ([13]; 0 μM: 0.77 ± 0.02) was 0.72 ± 0.07. The “Biofilm (A595)” value ([13]; 0 μM: 1.16 ± 0.01) was 0.35 ± 0.01, the “Growth (A578)” value ([14]; 0 μM: 0.69 ± 0.09) was 0.67 ± 0.06 and the “Biofilm (A595)” value ([14]; 0 μM: 0.98 ± 0.13) was 0.12 ± 0.04.
